Assay results taken from patent US10703764B2, “Benzopiperazine compositions as BET bromodomain inhibitors” (FORMA Therapeutics, Inc., priority 2013, dated 2020).

How the values were obtained:
[1] = biological target: T1, BRD4 BD2 (Homo sapiens, UniProt O60885); test: AlphaScreen binding assay, BRD4 Bromodomain 2
T1 construct: made in house
Procedure, shortened: (§1)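 An AlphaScreen competition format was used with His-BRD4 BD1 or BD2 and biotin-H4 K5/8/12/16-acetyl peptide, each at matched final levels of 50 nM (BD1) or 100 nM (BD2). Incubation in HEPES/NaCl buffer with 0.1% BSA and 0.01% Triton X-100 ran ≥1 h before IC50 determination.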

[2] = biological target: T2, BRD4 BD1 (Homo sapiens, UniProt O60885); test: AlphaScreen binding assay, BRD4 Bromodomain 1
T2 construct: made in house
Procedure, shortened: as §1

[3] = system: MV4-11 cells; test: Oncology cell growth assay (3-day proliferation, CellTiter-Glo); type: cell-based; conditions: Homo sapiens, MV4-11, 72 h, AML cell line MV4-11, 72 hours, compounds grouped by IC50 range, read-out: MV4-11 IC50 (inhibition of proliferation, gIC50)
Procedure, shortened: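 MV4-11 AML cells (RPMI 1640, 10% FBS) plated at 3000 cells/well and exposed 72 h to compound at final 10 to 0.0045 μM (3-fold series). Viability read by CellTiter-Glo luminescence; gIC50 from four-parameter logistic fit between DMSO control and no-cell background.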

SMILES | IC50 [1] [nM] | IC50 [2] [nM] | IC50 [3] [nM]
CC(=O)N1c2ccc(-c3cccc(NS(=O)(=O)c4ccc(C)cc4)c3)cc2N(C(=O)c2ccco2)C[C@@H]1C [Example I-859] | < 50 | 100 to 1000 | 100 to 500
CC(=O)N1c2ccc(-c3ccc(NS(=O)(=O)c4ccc(C)cc4)cc3)cc2N(C(=O)c2ccco2)C[C@@H]1C [Example I-860] | < 50 | 100 to 1000 | < 100
CC(=O)N1c2ccc(-c3ccc(C)s3)cc2N(C(=O)c2ccco2)C[C@@H]1C [Example I-872] | < 50 | 100 to 1000 | 100 to 500
CNC(=O)N1c2ccc(-c3ccc(S(C)(=O)=O)cc3)cc2N(C(=O)c2ccco2)C[C@@H]1C [Example I-988] | 50 to 500 | 1000 to 10000 | > 500
CC(=O)N1c2ccc(-c3cnn(C4CC4)c3)cc2N(C(=O)OCC2CC2)C[C@@H]1C [Example I-994] | 50 to 500 | 100 to 1000 | 100 to 500
C[C@H]1CN(C(=O)OCC2CC2)c2cc(-c3cnn(C4CC4)c3)ccc2N1C(=O)C1CC1 [Example I-995] | 50 to 500 | 100 to 1000 | 100 to 500
COC(=O)N1c2ccc(-c3cnn(C4CC4)c3)cc2N(C(=O)OCC2CC2)C[C@@H]1C [Example I-996] | > 500 | 100 to 1000 | > 500
CC(=O)N1c2ccc(-c3cnn(C4CC4)c3)cc2N(C(=O)OC2COC2)C[C@@H]1C [Example I-997] | 50 to 500 | 100 to 1000 | 100 to 500
CC(=O)N1c2ccc(-c3cnn(C4CC4)c3)cc2N(C(=O)OC2CCOCC2)C[C@@H]1C [Example I-1000] | 50 to 500 | < 100 | 100 to 500
C[C@H]1CN(C(=O)OC2CCOCC2)c2cc(-c3cnn(C4CC4)c3)ccc2N1C(=O)C1CC1 [Example I-1001] | 50 to 500 | 100 to 1000 | 100 to 500
COC(=O)N1c2ccc(-c3cnn(C4CC4)c3)cc2N(C(=O)OC2CCOCC2)C[C@@H]1C [Example I-1002] | 50 to 500 | 100 to 1000 | 100 to 500
CC(=O)N1c2ccc(-c3cnn(C4CC4)c3)cc2N(C(=O)OC2CCC2)C[C@@H]1C [Example I-1003] | 50 to 500 | < 100 | < 100
COC(=O)N1c2ccc(-c3cnn(C4CC4)c3)cc2N(C(=O)OC2CCC2)C[C@@H]1C [Example I-1005] | 50 to 500 | 100 to 1000 | 100 to 500
CC(=O)N1c2ccc(-c3ccc(N4CCCS4(=O)=O)cc3)cc2N(C(=O)Oc2ccc(F)cc2F)C[C@@H]1C [Example I-1011] | < 50 | 100 to 1000 | 100 to 500
CC(=O)N1c2ccc(-c3cnn(CCC#N)c3)cc2N(C(=O)Oc2ccc(F)cc2F)C[C@@H]1C [Example I-1012] | < 50 | 100 to 1000 | 100 to 500
CC(=O)N1c2ccc(-c3ccc(NS(C)(=O)=O)cc3)cc2N(C(=O)Oc2ccc(F)cc2F)C[C@@H]1C [Example I-1013] | 50 to 500 | 100 to 1000 | 100 to 500
CC(=O)N1c2ccc(-c3cnn(C(C)(C)CO)c3)cc2N(C(=O)Oc2ccc(F)cc2F)C[C@@H]1C [Example I-1014] | < 50 | 100 to 1000 | 100 to 500
CC(=O)N1c2ccc(-c3cnn(CCO)c3)cc2N(C(=O)Oc2ccc(F)cc2)C[C@@H]1C [Example I-1015] | 50 to 500 | 100 to 1000 | 100 to 500
CC(=O)N1c2ccc(-c3cnn(CCC#N)c3)cc2N(C(=O)Oc2ccc(F)cc2)C[C@@H]1C [Example I-1018] | < 50 | < 100 | 100 to 500
CC(=O)N1c2ccc(-c3ccc(NS(C)(=O)=O)cc3)cc2N(C(=O)Oc2ccc(F)cc2)C[C@@H]1C [Example I-1019] | < 50 | 100 to 1000 | 100 to 500
CC(=O)N1c2ccc(-c3cnn(C(C)(C)CO)c3)cc2N(C(=O)Oc2ccc(F)cc2)C[C@@H]1C [Example I-1020] | < 50 | 100 to 1000 | 100 to 500

Now from value to molecule:

IC50 [1] [nM] | IC50 [2] [nM] | IC50 [3] [nM] | SMILES
< 50 | 1000 to 10000 | 100 to 500 | CC(=O)N1c2ccc(-c3ccccc3)cc2N(C(=O)c2ccco2)C[C@@H]1C [Example I-804]
50 to 500 | 1000 to 10000 | 100 to 500 | CC(=O)N1c2ccc(-c3ccc4c(c3)OCO4)cc2N(C(=O)c2ccco2)C[C@@H]1C [Example I-806]
< 50 | 100 to 1000 | 100 to 500 | COc1ccc(-c2ccc3c(c2)N(C(=O)c2ccco2)C[C@H](C)N3C(C)=O)cc1 [Example I-807]
< 50 | 100 to 1000 | 100 to 500 | CC(=O)N1c2ccc(-c3ccc(C(=O)N(C)C)cc3)cc2N(C(=O)c2ccco2)C[C@@H]1C [Example I-809]
> 500 | 100 to 1000 | 100 to 500 | CC(=O)N1c2ccc(-c3ccc(C(N)=O)cc3)cc2N(C(=O)c2ccco2)C[C@@H]1C [Example I-810]
< 50 | 1000 to 10000 | 100 to 500 | CC(=O)N1c2ccc(-c3ccc(S(C)(=O)=O)cc3)cc2N(C(=O)c2ccco2)C[C@@H]1C [Example I-817]
< 50 | 100 to 1000 | 100 to 500 | CC(=O)N1c2ccc(-c3cnn(C)c3)cc2N(C(=O)c2ccco2)C[C@@H]1C [Example I-822]
< 50 | 1000 to 10000 | 100 to 500 | CNC(=O)c1ccc(-c2ccc3c(c2)N(C(=O)c2ccco2)C[C@H](C)N3C(C)=O)cc1 [Example I-824]
< 50 | 100 to 1000 | > 500 | CC(=O)N1c2ccc(-c3ccc4c(c3)OCCO4)cc2N(C(=O)c2ccco2)C[C@@H]1C [Example I-825]
< 50 | 100 to 1000 | 100 to 500 | CC(=O)N1c2ccc(-c3cccc(C(=O)N4CCOCC4)c3)cc2N(C(=O)c2ccco2)C[C@@H]1C [Example I-838]
< 50 | 1000 to 10000 | 100 to 500 | CC(=O)N1c2ccc(-c3cccc(S(N)(=O)=O)c3)cc2N(C(=O)c2ccco2)C[C@@H]1C [Example I-841]
< 50 | 100 to 1000 | 100 to 500 | CC(=O)N1c2ccc(-c3ccc4cnn(C)c4c3)cc2N(C(=O)c2ccco2)C[C@@H]1C [Example I-843]
< 50 | 100 to 1000 | 100 to 500 | CC(=O)N1c2ccc(-c3cccc(NS(C)(=O)=O)c3)cc2N(C(=O)c2ccco2)C[C@@H]1C [Example I-844]
50 to 500 | 100 to 1000 | 100 to 500 | CC(=O)N1c2ccc(-c3cccc(S(=O)(=O)N(C)C)c3)cc2N(C(=O)c2ccco2)C[C@@H]1C [Example I-845]
< 50 | 100 to 1000 | 100 to 500 | CC(=O)N1c2ccc(-c3cccc(C(=O)N(C)C)c3)cc2N(C(=O)c2ccco2)C[C@@H]1C [Example I-848]
50 to 500 | 100 to 1000 | > 500 | CC(=O)N1c2ccc(-c3cccc4c3OCO4)cc2N(C(=O)c2ccco2)C[C@@H]1C [Example I-849]
< 50 | 100 to 1000 | 100 to 500 | CC(=O)N1c2ccc(-c3ccc(N4CCOCC4)cc3)cc2N(C(=O)c2ccco2)C[C@@H]1C [Example I-850]
50 to 500 | 100 to 1000 | 100 to 500 | CC(=O)N1c2ccc(-c3ccc4c(cnn4C)c3)cc2N(C(=O)c2ccco2)C[C@@H]1C [Example I-852]
< 50 | 100 to 1000 | > 500 | CC(=O)N1c2ccc(-c3cccc(-n4nc(C)cc4C)c3)cc2N(C(=O)c2ccco2)C[C@@H]1C [Example I-857]
50 to 500 | 100 to 1000 | > 500 | CC(=O)N1c2ccc(-c3ccnc(N4CCOCC4)c3)cc2N(C(=O)c2ccco2)C[C@@H]1C [Example I-862]
50 to 500 | 1000 to 10000 | > 500 | COc1cc(-c2ccc3c(c2)N(C(=O)c2ccco2)C[C@H](C)N3C(C)=O)ccn1 [Example I-863]
50 to 500 | 100 to 1000 | 100 to 500 | CC(=O)N1c2ccc(-c3ccc4cnccc4c3)cc2N(C(=O)c2ccco2)C[C@@H]1C [Example I-864]
< 50 | 100 to 1000 | 100 to 500 | CC(=O)N1c2ccc(-c3ccc4scnc4c3)cc2N(C(=O)c2ccco2)C[C@@H]1C [Example I-865]
50 to 500 | 1000 to 10000 | > 500 | CC(=O)N1c2ccc(-c3cccc(N4CCCCC4)c3)cc2N(C(=O)c2ccco2)C[C@@H]1C [Example I-867]
> 500 | > 10000 | > 500 | CNC(=O)c1cccc(-c2ccc3c(c2)N(C(=O)c2ccco2)CCN3C(C)=O)c1 [Example I-868]
< 50 | 100 to 1000 | 100 to 500 | CC(=O)N1c2ccc(-c3ccc(N(C)C)cc3)cc2N(C(=O)c2ccco2)C[C@@H]1C [Example I-871]
< 50 | 100 to 1000 | 100 to 500 | CC(=O)N1c2ccc(-c3ccc(N4CCN(C)CC4)cc3)cc2N(C(=O)c2ccco2)C[C@@H]1C [Example I-874]
< 50 | 100 to 1000 | 100 to 500 | CNS(=O)(=O)c1ccc(-c2ccc3c(c2)N(C(=O)c2ccco2)C[C@H](C)N3C(C)=O)cc1 [Example I-875]
< 50 | 100 to 1000 | 100 to 500 | CCS(=O)(=O)Nc1cccc(-c2ccc3c(c2)N(C(=O)c2ccco2)C[C@H](C)N3C(C)=O)c1 [Example I-876]
